# Laboratory results reported in ChEMBL document CHEMBL1201862, “PubChem BioAssay data set” (2004).
#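 Cultured in 96-well plates, cells were exposed to test compound for 48 hours across five concentrations. Abbreviation: GI50, concentration required for 50% inhibition of growth.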 The source made the active and inactive calls. No stated cut-off is given here; in the data, active = GI50 up to about 1.1 µM and inactive = higher.
# How the values were obtained:
# Experiment in all cases: NCI anticancer screen, dose series, 48 h
# A498 = tested on: A498
# CAKI-1 = tested on: CAKI-1
# COLO 205 = tested on: COLO 205
# DU-145 = tested on: DU-145
# HCC 2998 = tested on: HCC 2998
# HCT-116 = tested on: HCT-116
# HCT-15 = tested on: HCT-15
# HOP-92 = tested on: HOP-92
# HT-29 = tested on: HT-29
# IGROV-1 = tested on: IGROV-1
# K562 = tested on: K562
# KM12 = tested on: KM12
# LOX IMVI = tested on: LOX IMVI
# M14 = tested on: M14
# MCF7 = tested on: MCF7
# MDA-MB-231 = tested on: MDA-MB-231
# MDA-MB-435 = tested on: MDA-MB-435
# MOLT-4 = tested on: MOLT-4
# Malme-3M = tested on: Malme-3M
# NCI-H226 = tested on: NCI-H226
# NCI-H23 = tested on: NCI-H23
# NCI-H460 = tested on: NCI-H460
# NCI/ADR-RES = tested on: NCI/ADR-RES
# OVCAR-8 = tested on: OVCAR-8
# SF-295 = tested on: SF-295
# SK-MEL-28 = tested on: SK-MEL-28
# SK-MEL-5 = tested on: SK-MEL-5
# SK-OV-3 = tested on: SK-OV-3
# SNB-75 = tested on: SNB-75
# T47D = tested on: T47D
# TK-10 = tested on: TK-10
# UACC-62 = tested on: UACC-62
# UO-31 = tested on: UO-31
# 786-0 = tested on: 786-0
# A549 = tested on: A549
# ACHN = tested on: ACHN
# CCRF-CEM = tested on: CCRF-CEM
# EKVX = tested on: EKVX
# HL-60 = tested on: HL-60
# HOP-62 = tested on: HOP-62
# Hs-578T = tested on: Hs-578T
# MDA-N = tested on: MDA-N
# NCI-H522 = tested on: NCI-H522
# OVCAR-3 = tested on: OVCAR-3
# OVCAR-4 = tested on: OVCAR-4
# OVCAR-5 = tested on: OVCAR-5
# PC-3 = tested on: PC-3
# RPMI-8226 = tested on: RPMI-8226
# RXF 393 = tested on: RXF 393
# SF-268 = tested on: SF-268
# SF-539 = tested on: SF-539
# SK-MEL-2 = tested on: SK-MEL-2
# SN12C = tested on: SN12C
# SNB-19 = tested on: SNB-19
# SR = tested on: SR
# SW-620 = tested on: SW-620
# U-251 = tested on: U-251
# UACC-257 = tested on: UACC-257
structure (smiles),measurement,setting,value
OCC1NC(CO)C(O)C1O (configuration not stated),GI50,A498,> 100 µM (inactive)
same,GI50,CAKI-1,> 100 µM (inactive)
same,GI50,COLO 205,> 100 µM (inactive)
same,GI50,DU-145,> 100 µM (inactive)
same,GI50,HCC 2998,> 100 µM (inactive)
same,GI50,HCT-116,> 100 µM (inactive)
same,GI50,HCT-15,> 100 µM
same,GI50,HOP-92,> 100 µM (inactive)
same,GI50,HT-29,> 100 µM (inactive)
same,GI50,IGROV-1,> 100 µM (inactive)
same,GI50,K562,> 100 µM (inactive)
same,GI50,KM12,> 100 µM (inactive)
same,GI50,LOX IMVI,> 100 µM (inactive)
same,GI50,M14,> 100 µM (inactive)
same,GI50,MCF7,> 100 µM (inactive)
same,GI50,MDA-MB-231,> 100 µM (inactive)
same,GI50,MDA-MB-435,> 100 µM (inactive)
same,GI50,MOLT-4,> 100 µM (inactive)
same,GI50,Malme-3M,> 100 µM (inactive)
same,GI50,NCI-H226,> 100 µM (inactive)
same,GI50,NCI-H23,> 100 µM (inactive)
same,GI50,NCI-H460,> 100 µM (inactive)
same,GI50,NCI/ADR-RES,> 100 µM (inactive)
same,GI50,OVCAR-8,> 100 µM (inactive)
same,GI50,SF-295,> 100 µM (inactive)
same,GI50,SK-MEL-28,> 100 µM (inactive)
same,GI50,SK-MEL-5,> 100 µM (inactive)
same,GI50,SK-OV-3,> 100 µM (inactive)
same,GI50,SNB-75,> 100 µM (inactive)
same,GI50,T47D,> 100 µM (inactive)
same,GI50,TK-10,> 100 µM (inactive)
same,GI50,UACC-62,> 100 µM (inactive)
same,GI50,UO-31,> 100 µM (inactive)
CC(C)c1c(O[Si](C(C)C)(C(C)C)C(C)C)c2c3c(ccc4c3c1OC4(C)C)C(C)CC2 (configuration not stated),GI50,786-0,> 100 µM (inactive)
same,GI50,A498,> 100 µM (inactive)
same,GI50,A549,> 100 µM (inactive)
same,GI50,ACHN,> 100 µM (inactive)
same,GI50,CAKI-1,> 100 µM (inactive)
same,GI50,CCRF-CEM,> 100 µM (inactive)
same,GI50,COLO 205,> 100 µM (inactive)
same,GI50,DU-145,> 100 µM (inactive)
same,GI50,EKVX,> 100 µM (inactive)
same,GI50,HCT-116,> 100 µM (inactive)
same,GI50,HCT-15,> 100 µM
same,GI50,HL-60,> 100 µM (inactive)
same,GI50,HOP-62,> 100 µM (inactive)
same,GI50,HOP-92,> 100 µM (inactive)
same,GI50,HT-29,> 100 µM (inactive)
same,GI50,Hs-578T,> 100 µM (inactive)
same,GI50,IGROV-1,> 100 µM (inactive)
same,GI50,K562,> 100 µM (inactive)
same,GI50,KM12,> 100 µM (inactive)
same,GI50,LOX IMVI,> 100 µM (inactive)
same,GI50,M14,> 100 µM (inactive)
same,GI50,MCF7,> 100 µM (inactive)
same,GI50,MDA-MB-231,> 100 µM (inactive)
same,GI50,MDA-MB-435,> 100 µM (inactive)
same,GI50,MDA-N,> 100 µM (inactive)
same,GI50,MOLT-4,> 100 µM (inactive)
same,GI50,Malme-3M,> 100 µM (inactive)
same,GI50,NCI-H226,> 100 µM (inactive)
same,GI50,NCI-H23,> 100 µM (inactive)
same,GI50,NCI-H460,> 100 µM (inactive)
same,GI50,NCI-H522,> 100 µM (inactive)
same,GI50,NCI/ADR-RES,> 100 µM (inactive)
same,GI50,OVCAR-3,> 100 µM (inactive)
same,GI50,OVCAR-4,> 100 µM (inactive)
same,GI50,OVCAR-5,> 100 µM (inactive)
same,GI50,OVCAR-8,> 100 µM (inactive)
same,GI50,PC-3,> 100 µM (inactive)
same,GI50,RPMI-8226,> 100 µM (inactive)
same,GI50,RXF 393,> 100 µM (inactive)
same,GI50,SF-268,> 100 µM (inactive)
same,GI50,SF-295,> 100 µM (inactive)
same,GI50,SF-539,> 100 µM (inactive)
same,GI50,SK-MEL-28,> 100 µM (inactive)
same,GI50,SK-MEL-2,> 100 µM (inactive)
same,GI50,SK-MEL-5,> 100 µM (inactive)
same,GI50,SK-OV-3,> 100 µM (inactive)
same,GI50,SN12C,> 100 µM (inactive)
same,GI50,SNB-19,> 100 µM (inactive)
same,GI50,SNB-75,21.3 µM (inactive)
same,GI50,SR,> 100 µM (inactive)
same,GI50,SW-620,> 100 µM (inactive)
same,GI50,TK-10,> 100 µM (inactive)
same,GI50,U-251,> 100 µM (inactive)
same,GI50,UACC-257,> 100 µM (inactive)
same,GI50,UACC-62,> 100 µM (inactive)
same,GI50,UO-31,> 100 µM (inactive)
O=C(O)C1C2C=CC(O2)C1C(=O)NCc1ccncc1 (configuration not stated),GI50,786-0,> 100 µM (inactive)
same,GI50,A498,> 100 µM (inactive)
same,GI50,A549,> 100 µM (inactive)
same,GI50,ACHN,> 100 µM (inactive)
same,GI50,CAKI-1,> 100 µM (inactive)
same,GI50,CCRF-CEM,> 100 µM (inactive)
same,GI50,COLO 205,> 100 µM (inactive)
same,GI50,DU-145,> 100 µM (inactive)
same,GI50,EKVX,> 100 µM (inactive)
same,GI50,HCT-116,> 100 µM (inactive)
same,GI50,HL-60,> 100 µM (inactive)
same,GI50,HOP-62,> 100 µM (inactive)
same,GI50,HOP-92,> 100 µM (inactive)
same,GI50,HT-29,> 100 µM (inactive)
same,GI50,Hs-578T,> 100 µM (inactive)
same,GI50,IGROV-1,> 100 µM (inactive)
same,GI50,K562,> 100 µM (inactive)
same,GI50,KM12,> 100 µM (inactive)
same,GI50,LOX IMVI,> 100 µM (inactive)
same,GI50,M14,> 100 µM (inactive)
same,GI50,MCF7,> 100 µM (inactive)
same,GI50,MDA-MB-231,> 100 µM (inactive)
same,GI50,MDA-MB-435,> 100 µM (inactive)
same,GI50,MDA-N,> 100 µM (inactive)
same,GI50,Malme-3M,> 100 µM (inactive)
same,GI50,NCI-H226,> 100 µM (inactive)
same,GI50,NCI-H460,> 100 µM (inactive)
same,GI50,NCI-H522,> 100 µM (inactive)
same,GI50,OVCAR-3,33.7 µM (inactive)
same,GI50,OVCAR-4,> 100 µM (inactive)
same,GI50,OVCAR-5,> 100 µM (inactive)
same,GI50,OVCAR-8,> 100 µM (inactive)
same,GI50,PC-3,> 100 µM (inactive)
same,GI50,RPMI-8226,> 100 µM (inactive)
same,GI50,RXF 393,> 100 µM (inactive)
same,GI50,SF-268,> 100 µM (inactive)
same,GI50,SF-295,> 100 µM (inactive)
same,GI50,SF-539,> 100 µM (inactive)
same,GI50,SK-MEL-28,> 100 µM (inactive)
same,GI50,SK-MEL-2,> 100 µM (inactive)
same,GI50,SK-MEL-5,> 100 µM (inactive)
same,GI50,SK-OV-3,> 100 µM (inactive)
same,GI50,SN12C,> 100 µM (inactive)
same,GI50,SNB-19,> 100 µM (inactive)
same,GI50,SNB-75,> 100 µM (inactive)
same,GI50,SR,> 100 µM (inactive)
same,GI50,SW-620,> 100 µM (inactive)
same,GI50,T47D,> 100 µM (inactive)
same,GI50,TK-10,> 100 µM (inactive)
same,GI50,U-251,> 100 µM (inactive)
same,GI50,UACC-257,> 100 µM (inactive)
same,GI50,UACC-62,> 100 µM (inactive)
same,GI50,UO-31,> 100 µM (inactive)
